These are literature values, as cited in EP2479272A1, “METHOD FOR PRODUCING MONATIN” (Ajinomoto Co., Inc., priority 2010, dated 2012).

Each structure is given as a SMILES string.

The conditions of this data set: compared with sucrose; from Patent Document 1.

As to `N[C@@H](CC(O)(Cc1c[nH]c2ccccc12)C(=O)O)C(=O)O` (stereo partly shown) [Monatin, 4-(indole-3-yl-methyl)-4-hydroxy-glutamic acid], the sweetness entry is “one thousand and several hundreds times sweeter than sucrose”.
